Measurements as given in the supplement of paper PMC11061612.

Key:
DK-MG (Glioblastoma) = assay: Bliss excess, mean over the matrix (fraction); higher = more synergy
Procedure, shortened: (§1)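 Cell lines grown in DMEM/F12 or RPMI with 10% FBS were plated in 1536-well plates and held 24 hours at 37°C, 5% CO2 before 72 hours of exposure to two-drug dose matrices, with DMSO typically at 0.2%. CellTiter-Glo 2.0 luminescence gave viability, which was converted to inhibition. Vehicle wells were set to 0 and blank wells to 1. Combination Emax is the second-highest inhibition in the matrix, and Bliss excess is the observed combination effect minus the expected EA + EB − EA·EB, where EA and EB are the single-agent effects.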

GCIY (Gastric Carcinoma) = assay: as above
Procedure, shortened: as §1

[1] = test system: JURL-MK1 (Chronic Myelogenous Leukemia); assay: as above
Procedure, shortened: as §1

[2] = test system: NCI-H1648 (Lung Adenocarcinoma); assay: as above
Procedure, shortened: as §1

NCI-H2452 (Mesothelioma) = assay: as above
Procedure, shortened: as §1

[3] = test system: NTERA-2-cl-D1 (Other Solid Carcinomas); assay: as above
Procedure, shortened: as §1

[4] = test system: RS4-11 (B-Lymphoblastic Leukemia); assay: as above
Procedure, shortened: as §1

[5] = test system: SBC-5 (Small Cell Lung Carcinoma); assay: as above
Procedure, shortened: as §1

SK-MEL-24 (Melanoma) [6] = assay: as above
Procedure, shortened: as §1

[7] = test system: TOV-21G (Ovarian Carcinoma); assay: as above
Procedure, shortened: as §1

[8] = test system: ATN-1 (T-Lymphoblastic Leukemia); assay: combination Emax (second highest fraction inhibited in the dose matrix, 72 h); higher = more inhibition; extreme values may be limits of the assay
Procedure, shortened: as §1

[9] = test system: BC-1 (B-Cell Non-Hodgkin's Lymphoma); assay: as above
Procedure, shortened: as §1

[10] = test system: GRANTA-519 (B-Cell Non-Hodgkin's Lymphoma); assay: as above
Procedure, shortened: as §1

[11] = test system: JURL-MK1 (Chronic Myelogenous Leukemia); assay: as above
Procedure, shortened: as §1

[12] = test system: KNS-62 (Squamous Cell Lung Carcinoma); assay: as above
Procedure, shortened: as §1

[13] = test system: NTERA-2-cl-D1 (Other Solid Carcinomas); assay: as above
Procedure, shortened: as §1

[14] = test system: RPMI-8402 (T-Lymphoblastic Leukemia); assay: as above
Procedure, shortened: as §1

[15] = test system: SBC-3 (Small Cell Lung Carcinoma); assay: as above
Procedure, shortened: as §1

SK-MEL-24 (Melanoma) [16] = assay: as above
Procedure, shortened: as §1
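For Bliss excess, mean over the matrix in this document: after 72 h of two-drug dosing.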

SMILES | Bliss excess (DK-MG (Glioblastoma)) | Bliss excess (GCIY (Gastric Carcinoma)) | Bliss excess [1] | Bliss excess [2] | Bliss excess (NCI-H2452 (Mesothelioma)) | Bliss excess [3] | Bliss excess [4] | Bliss excess [5] | Bliss excess (SK-MEL-24 (Melanoma) [6]) | Bliss excess [7] | combination Emax [8] | combination Emax [9] | combination Emax [10] | combination Emax [11] | combination Emax [12] | combination Emax [13] | combination Emax [14] | combination Emax [15] | combination Emax (SK-MEL-24 (Melanoma) [16])
CN(CCO)CC[C@H](CSc1ccccc1)Nc1ccc(S(=O)(=O)NC(=O)c2ccc(N3CCC([C@@H](O)c4ccccc4-c4ccc(Cl)cc4)CC3)cc2)cc1S(=O)(=O)C(F)(F)F [AZD4320] + C1CN(CCC1(C(=O)N[C@@H](CCO)C2=CC=C(C=C2)Cl)N)C3=NC=NC4=C3C=CN4 [Capivasertib] (first compound max 1 µM, 7x7, partner max 3 µM) | -0.0847 | 0.0298 | -0.07 | -0.067 | -0.0757 | 0.0075 | 0.0024 | -0.0207 | -0.0428 | -0.0429 | 0.715 | 0.35 | 0.812 | 0.87 | 0.232 | 0.409 | 0.961 | 0.246 | 0.452
CN(CCO)CC[C@H](CSc1ccccc1)Nc1ccc(S(=O)(=O)NC(=O)c2ccc(N3CCC([C@@H](O)c4ccccc4-c4ccc(Cl)cc4)CC3)cc2)cc1S(=O)(=O)C(F)(F)F [AZD4320] + CCN(CCO)CCCOc1ccc2c(Nc3cc(CC(=O)Nc4cccc(F)c4)[nH]n3)ncnc2c1 [AZD2811] (first compound max 1 µM, 7x7, partner max 1 µM) | -0.0213 | -0.0067 | 0.0346 | 0.0065 | -0.0111 | 0.159 | -0.0011 | -0.0075 | -0.0647 | -0.0177 | 0.939 | 0.662 | 0.993 | 0.929 | 0.207 | 0.921 | 0.999 | 0.523 | 0.226
CN(CCO)CC[C@H](CSc1ccccc1)Nc1ccc(S(=O)(=O)NC(=O)c2ccc(N3CCC([C@@H](O)c4ccccc4-c4ccc(Cl)cc4)CC3)cc2)cc1S(=O)(=O)C(F)(F)F [AZD4320] + C[C@@H]1COCCN1C2=NC(=NC(=C2)C3(CC3)[S@](=N)(=O)C)C4=C5C=CNC5=NC=C4 [AZD6738] (first compound max 1 µM, 7x7, partner max 10 µM) | -0.0439 | 0.0264 | -0.0278 | -0.0523 | -0.0246 | -0.0301 | 0.026 | -0.0511 | -0.0584 | -0.0224 | 0.978 | 0.901 | 0.999 | 1 | 0.581 |  | 1 | 0.925 | 0.556
CN(CCO)CC[C@H](CSc1ccccc1)Nc1ccc(S(=O)(=O)NC(=O)c2ccc(N3CCC([C@@H](O)c4ccccc4-c4ccc(Cl)cc4)CC3)cc2)cc1S(=O)(=O)C(F)(F)F [AZD4320] + C[C@@H](Nc1cc(F)cc(F)c1)c1cc(C(=O)N(C)C)cc2c(=O)cc(N3CCOCC3)oc12 [AZD8186] (first compound max 1 µM, 7x7, partner max 3 µM) | -0.0164 | 0.0022 | 0.0149 | 0.0323 | -0.0369 | 0.0543 | 0.0239 | 0.0591 | -0.0354 | -0.0083 | 0.807 | 0.461 | 1 | 0.871 | 0.382 | 0.976 | 0.994 | 0.979 | 0.772
CN(CCO)CC[C@H](CSc1ccccc1)Nc1ccc(S(=O)(=O)NC(=O)c2ccc(N3CCC([C@@H](O)c4ccccc4-c4ccc(Cl)cc4)CC3)cc2)cc1S(=O)(=O)C(F)(F)F [AZD4320] + Cc1cc2ncnn2cc1Nc1ncc2c(n1)n(C1CCOCC1)c(=O)n2C [AZD7648] (first compound max 1 µM, 7x7, partner max 10 µM) | -0.0591 | -0.0452 | -0.0287 | -0.0264 | -0.011 | 0.0408 | -0.0148 | -0.032 | -0.0429 | -0.0221 | 0.778 | 0.509 | 0.829 | 0.827 | 0.108 | 0.682 | 0.929 | 0.276 | 0.252
C[C@@H](c1ccc2nccn2c1)n1nnc2ncc(-c3cnn(C)c3)nc21 [Savolitinib] + CN(CC[C@H](CSC1=CC=CC=C1)NC2=C(C=C(C=C2)S(=O)(=O)NC(=O)C3=CC=C(C=C3)N4CCC(CC4)[C@H](C5=CC=CC=C5C6=CC=C(C=C6)Cl)O)S(=O)(=O)C(F)(F)F)CCO [AZD4320] (first compound max 1 µM, 7x7, partner max 1 µM) | -0.0585 |  | -0.0811 |  |  |  | -0.0131 | -0.0003 |  | -0.0216 | 0.679 |  | 0.898 | 0.889 |  |  |  |  | 
